Test results from patent publication EP0232423A1, “CIRCULATION IMPROVING AGENT” (GRELAN PHARMACEUTICAL CO., LTD., priority 1985, dated 1987).
Counter-ions that a name gives are not always drawn.

Tests used:
[1] = system: isolated basilar artery; assay: Ca antagonistic action: Ca-induced contraction in K-depolarized basilar artery; type: cell-based, Mongrel dogs; conditions: Canis lupus familiaris, 0.25 h, 50 mM KCl, Ca-free bath, cumulative CaCl2, compound applied 15 minutes before, read-out: pA2 values on Ca-induced contraction in depolarized muscle by K (converted)
Experimental: The same measurements as in Test Example 2 were carried out using the isolated basilar artery and isolated femoral artery treated in accordance with the method of Test Example 2.
For examination of the Ca antagonistic action, the depolarization of both isolated arteries was induced with 50 mM KC1 in a bathing solution from which Ca had been removed and then CaCl2 was cumulatively applied thereto. As test compounds, (a) compound (I) (erythro form) lactate and (b) ifenprodil tartrate were applied at 15 minutes before addition of CaCl2.

[2] = system: α2-adrenoceptor; assay: Antagonism of clonidine (α2-agonist) contraction in saphenous vein; type: cell-based, Mongrel dogs; conditions: α2 - agonist: clonidine, competitive antagonism, 15 min
Excerpt: In this experiment, phenylephrine and clonidine were used as al-agonist and a2-agonist, respectively, and these agonists were cumulatively applied to obtain a dose-response curve.

[3] = system: ddY male mice; assay: Thromboembolic respiratory depression induced by ADP; type: in vivo; conditions: 30 mg/kg oral, ADP 40 mg/kg i.v., Compound (I) = erythro form
Experimental: The degree of formation of platelet thrombi in the pulmonary vessels of mice induced by intravenous administration of ADP can be measured based on the decrease in the respiratory rate. The anti-platelet thrombotic action of test drugs can be evaluated by using this decrease in the respiratory rate as a standard. […] Relative respiratory rate (%) was calculated according to the following formula. [formula] (cf. "Thrombosis Research", Vol. 35, Page 311, 1984)

## CC(C(O)c1ccc(O)cc1)N1CCC(Cc2ccccc2)CC1 (stereo not shown) [Ifenprodil tartrate]
[1]
  Kb: 5.37 µM
[2]
  pA2 value: 8.31
[3]; 1/3 hr after administration
  Relative respiratory rate (%): 34.6 ±10.2 (n=8) %
[3]; 1 hr after administration
  Relative respiratory rate (%): 61.3 ±9.3 (n=6) %
[3]; 2 hr after administration
  Relative respiratory rate (%): 52.7 ±6.1 (n=10) %
[3]; 3 hr after administration
  Relative respiratory rate (%): 41.0 ±4.4 (n=8) %
[3]; 5 hr after administration
  Relative respiratory rate (%): 23.0 ±9.9 (n=7) %
